From patent US6376497B1, “Antifungal azole derivatives having a fluorinated vinyl group and process for preparing same” (Korea Research Institute of Chemical Technology, priority 1999, dated 2002)
In brackets after ≈: the same amount, converted by molar mass. Like-named read-outs stand apart in the source and are kept apart here.

Legend:
[1] = test system: Cryptococcus neoformans B. 42419; test: In vitro antifungal activity, microbroth dilution MIC; assay type: cell-based; settings: Cry. neoformans B. 42419, RPMI-1640, 35° C., 4 to 48 hours
Procedure, shortened: (§1)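 Broth microdilution adapted from NCCLS M27, in RPMI-1640 with 0.165 M MOPS, pH 7.0. Yeast or mould inoculum at 2×10^3 CFU/ml was mixed 1:1 with DMSO-derived compound solutions (200 to 0.10 μg/ml before mixing) and incubated at 35 °C for 4 to 48 h. MIC was the concentration showing no growth.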

Candida albicans C1-2 = test: as above; assay type: cell-based; settings: C. albicans C1-2, RPMI-1640, 35° C., 4 to 48 hours
Procedure, shortened: as §1

[2] = test system: Candida parapsitosis A. 7330; test: as above; assay type: cell-based; settings: C. parapsitosis A. 7330, RPMI-1640, 35° C., 4 to 48 hours
Procedure, shortened: as §1

[3] = test system: Candida pseudotropicalis K. 11658; test: as above; assay type: cell-based; settings: C. pseudotropicalis K. 11658, RPMI-1640, 35° C., 4 to 48 hours
Procedure, shortened: as §1

[4] = test system: Aspergillus niger A. 16404; test: as above; assay type: cell-based; settings: A. niger A. 16404, RPMI-1640, 35° C., 4 to 48 hours
Procedure, shortened: as §1

[5] = test system: Cryptococcus neoformans A. 34144; test: as above; assay type: cell-based; settings: Cry. neoformans A. 34144, RPMI-1640, 35° C., 4 to 48 hours
Procedure, shortened: as §1

[6] = test system: Candida albicans IFO. 1385; test: as above; assay type: cell-based; settings: C. albicans IFO. 1385, RPMI-1640, 35° C., 4 to 48 hours
Procedure, shortened: as §1

[7] = test system: Trichophyton mentagrophytes B. 32663; test: as above; assay type: cell-based; settings: T. mentagrophytes B. 32663, RPMI-1640, 35° C., 4 to 48 hours
Procedure, shortened: as §1

[8] = test system: Torulopsis glabrata B. 16205; test: as above; assay type: cell-based; settings: T. glabrata B. 16205, RPMI-1640, 35° C., 4 to 48 hours
Procedure, shortened: as §1

[9] = test system: Cryptococcus neoformans IFM. 40092; test: as above; assay type: cell-based; settings: Cry. neoformans IFM. 40092, RPMI-1640, 35° C., 4 to 48 hours
Procedure, shortened: as §1

[10] = test system: Trichophyton mentagrophytes A. 9129; test: as above; assay type: cell-based; settings: T. mentagrophytes A. 9129, RPMI-1640, 35° C., 4 to 48 hours
Procedure, shortened: as §1

[11] = test system: Candida tropicalis A. 13803; test: as above; assay type: cell-based; settings: C. tropicalis A. 13803, RPMI-1640, 35° C., 4 to 48 hours
Procedure, shortened: as §1

[12] = test system: Aspergillus furnigatus B. 19119; test: as above; assay type: cell-based; settings: A furnigatus B. 19119, RPMI-1640, 35° C., 4 to 48 hours
Procedure, shortened: as §1

Candida krusei K. 11655 = test: as above; assay type: cell-based; settings: C. krusei K. 11655, RPMI-1640, 35° C., 4 to 48 hours
Procedure, shortened: as §1

[13] = test system: Candida albicans A. 10231; test: as above; assay type: cell-based; settings: C. albicans A. 10231, RPMI-1640, 35° C., 4 to 48 hours
Procedure, shortened: as §1

ICR mice = settings: for LD50: single oral administration in corn oil containing 30% DMSO, observed for 7 days
Protocol: 30 four-week-old, specific pathogen-free ICR mice, 15 female mice each weighing about 15.8 to 22.3 g and 15 male mice each weighing about 18.7 to 25.6 g, were provided by the Animal Center of Korean Research Institute of Chemical and Technology.
When the mice became five-week-old, 15 female mice each weighing about 17.0 to 22.3 g and 15 male mice each weighing about 22.0 to 27.7 g were bred for 6 days before the experiment under an environment of […], 50±10% relative humidity, 12L/12D photoperiod, 10-20 ventilation and 150-300 Lux illumination, with free access to food(Cheil Fodder Co.) which had been sterilized by using 2.0 Mrad radiation and water sterilized by U.V. sterilizer.
The compound of Example 26 of the present invention was dissolved in corn oil containing 30% DMSO and the solution was orally administered in doses of 10, 50, 100, 500, 1,000 and 2,000 mg of the compound/kg of the body weight(10 ml of the sample volume/kg of the body weight). […] The weight changes of the mice were recorded every day to examine the effect of the test compound. Further, on the 7th day, the mice were sacrificed and the internal organs were visually examined.

mouse [14] = settings: intravenous; cited from earlier work
mouse [15] = settings: oral; cited from earlier work

| Compound | Minimal inhibitory concentration (MIC) [1] [µg/mL] | Minimal inhibitory concentration (MIC) (Candida albicans C1-2) [µg/mL] | Minimal inhibitory concentration (MIC) [2] [µg/mL] | Minimal inhibitory concentration (MIC) [3] [µg/mL] | Minimal inhibitory concentration (MIC) [4] [µg/mL] | Minimal inhibitory concentration (MIC) [5] [µg/mL] | Minimal inhibitory concentration (MIC) [6] [µg/mL] | Minimal inhibitory concentration (MIC) [7] [µg/mL] | Minimal inhibitory concentration (MIC) [8] [µg/mL] | Minimal inhibitory concentration (MIC) [9] [µg/mL] | Minimal inhibitory concentration (MIC) [10] [µg/mL] | Minimal inhibitory concentration (MIC) [11] [µg/mL] | Minimal inhibitory concentration (MIC) [12] [µg/mL] | Minimal inhibitory concentration (MIC) (Candida krusei K. 11655) [µg/mL] | Minimal inhibitory concentration (MIC) [13] [µg/mL] | also measured |
| --- | --- | --- | --- | --- | --- | --- | --- | --- | --- | --- | --- | --- | --- | --- | --- | --- |
| FC(OCC1COC(Cn2ccnc2)(c2ccc(Cl)cc2Cl)O1)=C(c1ccc(Oc2ccccc2)cc1)C(F)(F)F (centres unmarked) [Ex. 29] | 1.56 (≈ 2.56 µM) | >100 | >100 | >100 | 100 (≈ 164 µM) | 1.56 (≈ 2.56 µM) | 1.56 (≈ 2.56 µM) | 3.13 (≈ 5.14 µM) | 12.5 (≈ 20.5 µM) | 0.20 (≈ 0.328 µM) | 6.25 (≈ 10.3 µM) | >100 | 6.25 (≈ 10.3 µM) | >100 | >100 | – |
| FC(OCC1COC(Cn2ccnc2)(c2ccc(Cl)cc2Cl)O1)=C(c1cccc(Cl)c1)C(F)(F)F (centres unmarked) [Ex. 30] | 0.78 (≈ 1.41 µM) | 25.0 (≈ 45.3 µM) | >100 | >100 | 25.0 (≈ 45.3 µM) | 0.78 (≈ 1.41 µM) | 1.56 (≈ 2.83 µM) | 1.56 (≈ 2.83 µM) | 12.5 (≈ 22.7 µM) | 0.20 (≈ 0.362 µM) | 6.25 (≈ 11.3 µM) | >100 | 12.5 (≈ 22.7 µM) | >100 | 25.0 (≈ 45.3 µM) | – |
| FC(OCC1COC(Cn2ccnc2)(c2ccc(Cl)cc2Cl)O1)=C(c1ccc(Cl)cc1)C(F)(F)F (centres unmarked) [Ex. 31] | 1.56 (≈ 2.83 µM) | 12.5 (≈ 22.7 µM) | 25.0 (≈ 45.3 µM) | 12.5 (≈ 22.7 µM) | 6.25 (≈ 11.3 µM) | 1.56 (≈ 2.83 µM) | 0.78 (≈ 1.41 µM) | 1.56 (≈ 2.83 µM) | 6.25 (≈ 11.3 µM) | 0.78 (≈ 1.41 µM) | 3.13 (≈ 5.67 µM) | 12.5 (≈ 22.7 µM) | 6.25 (≈ 11.3 µM) | 25.0 (≈ 45.3 µM) | 12.5 (≈ 22.7 µM) | – |
| COc1cccc(C(=C(F)OCC2COC(Cn3ccnc3)(c3ccc(Cl)cc3Cl)O2)C(F)(F)F)c1 (centres unmarked) [Example 26] | 1.56 (≈ 2.85 µM) | 6.25 (≈ 11.4 µM) | 12.5 (≈ 22.8 µM) | – | 6.25 (≈ 11.4 µM) | 1.56 (≈ 2.85 µM) | 0.39 (≈ 0.713 µM) | 0.78 (≈ 1.43 µM) | 6.25 (≈ 11.4 µM) | 0.39 (≈ 0.713 µM) | 1.56 (≈ 2.85 µM) | 12.5 (≈ 22.8 µM) | 3.13 (≈ 5.72 µM) | 25.0 (≈ 45.7 µM) | 6.25 (≈ 11.4 µM) | LD50 (ICR mice; female): approximately 2,000 mg/kg; LD50 (ICR mice; male): higher than 2,000 mg/kg; survival at day 7 (ICR mice; single oral dose of 1,000 mg/kg or below): All the mice were alive at day 7; weight loss (ICR mice; single oral doses 10 to 2,000 mg/kg, 7 day test period): no weight loss was observed |
| C[C@@H]1[C@H](O)[C@@H](C)/C=C/C=C/C=C/C=C/C=C/C=C/C=C/[C@H](O[C@@H]2O[C@H](C)[C@@H](O)[C@H](N)[C@@H]2O)C[C@@H]2O[C@](O)(C[C@@H](O)C[C@@H](O)[C@H](O)CC[C@@H](O)C[C@@H](O)CC(=O)O[C@H]1C)C[C@H](O)[C@H]2C(=O)O [amphotericin B] | – | – | – | – | – | – | – | – | – | – | – | – | – | – | – | LD50 (mouse [14]): 4 mg/kg |
| CC(=O)N1CCN(c2ccc(OCC3COC(Cn4ccnc4)(c4ccc(Cl)cc4Cl)O3)cc2)CC1 (centres unmarked) [ketoconazole] | – | – | – | – | – | – | – | – | – | – | – | – | – | – | – | LD50 (mouse [15]): 702 mg/kg |
| (E&Z) 1-{4-[cis-2-(2,4-dichlorophenyl)-2-(1H-1-imidazolylmethyl)-1,3-dioxolan-4-ylmethoxy]-phenoxy}-1,3,3,3-tetrafluoro-2-phenyl-1-propene [Example 19] | 0.78 | 6.25 | >100 | 25.0 | 3.13 | 1.56 | 0.78 | 0.78 | 3.13 | 0.20 | 1.56 | 25.0 | 1.56 | 50.0 | 6.25 | – |
